Experimental data from patent US20100298252A1, “METHODS AND COMPOSITIONS FOR OPHTHALMIC TREATMENT OF FUNGAL AND BACTERIAL INFECTIONS” (priority 2004, published 2010).
Values joined by “and” are separate entries in the source; they are usually repeats but may differ in a detail not shown here. Identical values can stand only once.

Key:
Type in all cases: cell-based
Pseudomonas aeruginosa [1] = assay: MIC and FIC index, microtiter checkerboard / broth dilution; conditions: Ps. aeruginosa; for MIC Individually Administered, antibiotic: antibiotic alone
Procedure: (§1) Agents and Chem. 210-217. (1967) and Sparks et al., Vet. Res. Comm. 18, 241-249 (1994), incorporated herein by reference in their entireties. […] Then 0.05 ml of an 18-hour old culture of a test organism, containing 10^6 colony-forming units (CFU)/ml, was added to each well. Controls for the culture and media were included in each plate. Plates were covered and incubated at 37° Celsius for 18-24 hours. […] To generate isobolograms, FICs of the two test solutions were plotted individually on the x-axis and y-axis to determine the effect of combining the two test solutions on bacterial growth. A line that curves away from, the zero point and the coordinates indicates antagonism. […] A numerical score or fractional inhibitory concentration (FIC) index was determined. The FIC index is equal to the sum of the values of FIC for the individual drugs: […] Am. Soc. Microbiol. Williams and Wilkins, Baltimore 1970), incorporated herein by reference in its entirety. […] Ps. aeruginosa, and Ent. faecalis.

Enterococcus faecalis [2] = assay: as above; conditions: Ent. faecalis; for MIC Individually Administered, antibiotic: antibiotic alone
Procedure: as §1

Staphylococcus aureus [3] = assay: as above; conditions: Staph. aureus; for MIC Individually Administered, antibiotic: antibiotic alone
Procedure: as §1

Pseudomonas aeruginosa [4] = assay: Antibiotic resistance profile by disc diffusion; parameters: key: R = resistant; I = intermediate; S = sensitive; conditions: disc diffusion on MHA
Procedure: (§2) The organisms of this study were isolated from human burn patients. They included strains of methicillin resistant Staphylococcus aureus, and vancomycin resistant strains of Pseudomonas aeruginosa and Enterococcus faecalis. The bacterial isolates were propagated in or on Brain Heart Infusion broth (BHI), Mueller-Hinton Broth (MHB), blood agar (BA), Mueller-Hinton agar (MHA), enterococcus agar (EA), or 2× nutrient agar (2×NA).
(§3) Antibiotic resistance profiles were determined by the disc diffusion method on MHA (5).

Enterococcus faecalis [5] = assay: Antibiotic resistance profile by disc diffusion; parameters: key: R = resistant; I = intermediate; S = sensitive; conditions: disc diffusion on MHA
Procedure: as §2, §3

Staphylococcus aureus [6] = assay: Antibiotic resistance profile by disc diffusion; parameters: key: R = resistant; I = intermediate; S = sensitive; conditions: disc diffusion on MHA
Procedure: as §2, §3

Pseudomonas aeruginosa [7] = assay: Minimal Bactericidal Concentration, broth-dilution microtiter; conditions: Ps. aeruginosa
From the text: (§4) 307 (pub: Am. Soc. Microbiol. Williams and Wilkins, Baltimore 1970), incorporated herein by reference in its entirety.

Enterococcus faecalis [8] = assay: as above
From the text: as §4

Staphylococcus aureus [9] = assay: as above; conditions: Staph. aureus
From the text: as §4

[10] = neomycin co-administered with EDTA, 50 mM Tris

Molecule: NCC[C@H](O)C(=O)N[C@@H]1C[C@H](N)[C@@H](O[C@H]2O[C@H](CN)[C@@H](O)[C@H](O)[C@H]2O)[C@H](O)[C@H]1O[C@H]1O[C@H](CO)[C@@H](O)[C@H](N)[C@H]1O [Amikacin, amikacin]
- MIC Individually Administered, antibiotic (Pseudomonas aeruginosa [1]): 1 µg/mL
- MIC Individually Administered, antibiotic (Enterococcus faecalis [2]): 2000 µg/mL
- MIC Individually Administered, antibiotic (Staphylococcus aureus [3]): 120 µg/mL

Molecule: CC1(C)S[C@@H]2[C@H](NC(=O)[C@H](N)c3ccccc3)C(=O)N2[C@H]1C(=O)O [Ampicillin, ampicillin]
- MIC Individually Administered, antibiotic (Pseudomonas aeruginosa [1]): 490 µg/mL
- MIC Individually Administered, antibiotic (Enterococcus faecalis [2]): 1 µg/mL
- MIC Individually Administered, antibiotic (Staphylococcus aureus [3]): 240 µg/mL
- Antibiotic resistance profile (Pseudomonas aeruginosa [4]): R
- Antibiotic resistance profile (Enterococcus faecalis [5]): S
- Antibiotic resistance profile (Staphylococcus aureus [6]): R^B

Molecule: O=C(N[C@H](CO)[C@H](O)c1ccc([N+](=O)[O-])cc1)C(Cl)Cl [Chloramphenicol, chloramphenicol]
- MIC Individually Administered, antibiotic (Pseudomonas aeruginosa [1]): 12500 µg/mL
- MIC Individually Administered, antibiotic (Enterococcus faecalis [2]): 400 µg/mL
- MIC Individually Administered, antibiotic (Staphylococcus aureus [3]): 390 µg/mL
- Antibiotic resistance profile (Pseudomonas aeruginosa [4]): R
- Antibiotic resistance profile (Enterococcus faecalis [5]): R
- Antibiotic resistance profile (Staphylococcus aureus [6]): I

Molecule: O=C(O)CN(CCN(CC(=O)O)CC(=O)O)CC(=O)O [EDTA, ethylenediamenetetracetic acid]
- MIC Individually Administered, EDTA (Pseudomonas aeruginosa [1]; EDTA alone in 50 mM Tris): 1250 µM
- MIC Individually Administered, EDTA (Enterococcus faecalis [2]; EDTA alone in 50 mM Tris): 15630 µM
- MIC Individually Administered, EDTA (Staphylococcus aureus [3]; EDTA alone in 50 mM Tris): 1000 µM

Molecule: CN(C)[C@@H]1C(O)=C(C(N)=O)C(=O)[C@@]2(O)C(O)=C3C(=O)c4c(O)cccc4[C@@](C)(O)[C@H]3[C@H](O)[C@@H]12 [Oxytetracycline, oxytetracycline]
- MIC Individually Administered, antibiotic (Pseudomonas aeruginosa [1]): 3 µg/mL
- MIC Individually Administered, antibiotic (Enterococcus faecalis [2]): 50 µg/mL
- MIC Individually Administered, antibiotic (Staphylococcus aureus [3]): 0.1 µg/mL

Molecule: [H]/N=C(/N)N[C@H]1[C@H](O)[C@@H](O)[C@H](O[C@@H]2O[C@@H](C)[C@](O)(C=O)[C@H]2O[C@@H]2O[C@@H](CO)[C@H](O)[C@@H](O)[C@@H]2NC)[C@@H](N/C(N)=N\[H])[C@@H]1O [S, streptomycin]
- Antibiotic resistance profile (Pseudomonas aeruginosa [4]): R
- Antibiotic resistance profile (Enterococcus faecalis [5]): R
- Antibiotic resistance profile (Staphylococcus aureus [6]): S

Molecule: CN(C)[C@@H]1C(O)=C(C(N)=O)C(=O)[C@@]2(O)C(O)=C3C(=O)c4c(O)cccc4[C@@](C)(O)[C@H]3C[C@@H]12 [Te, tetracycline]
- Antibiotic resistance profile (Pseudomonas aeruginosa [4]): R
- Antibiotic resistance profile (Enterococcus faecalis [5]): R
- Antibiotic resistance profile (Staphylococcus aureus [6]): S

Molecule: CN[C@H](CC(C)C)C(=O)N[C@H]1C(=O)N[C@@H](CC(N)=O)C(=O)N[C@H]2C(=O)N[C@H]3C(=O)N[C@H](C(=O)N[C@H](C(=O)O)c4cc(O)cc(O)c4-c4cc3ccc4O)[C@H](O)c3ccc(c(Cl)c3)Oc3cc2cc(c3O[C@@H]2O[C@H](CO)[C@@H](O)[C@H](O)[C@H]2O[C@H]2C[C@](C)(N)[C@H](O)[C@H](C)O2)Oc2ccc(cc2Cl)[C@H]1O [Va, vancomycin]
- Antibiotic resistance profile (Pseudomonas aeruginosa [4]): R
- Antibiotic resistance profile (Enterococcus faecalis [5]): R
- Antibiotic resistance profile (Staphylococcus aureus [6]): S

Molecule: gentamicin [Gm]
- Antibiotic resistance profile (Pseudomonas aeruginosa [4]): I
- Antibiotic resistance profile (Enterococcus faecalis [5]): R
- Antibiotic resistance profile (Staphylococcus aureus [6]): S

Molecule: neomycin
- Decrease of MBC value when EDTA and neomycin combined vs individually administered (Pseudomonas aeruginosa [7]): 99.2%
- MBC Individually Administered (Pseudomonas aeruginosa [7]; neomycin alone, 50 mM Tris): 5000 µg/mL
- MBC Co-administered (Pseudomonas aeruginosa [7]; [10]): 40 µg/mL
- MBC Individually Administered (Enterococcus faecalis [8]; En. faecalis, neomycin alone, 50 mM Tris): 25000 µg/mL
- MBC Co-administered (Enterococcus faecalis [8]; En. faecalis, neomycin co-administered with EDTA, 50 mM Tris): 6250 µg/mL
- Decrease of MBC value when EDTA and neomycin combined vs individually administered (Enterococcus faecalis [8]; Ent. faecalis): 75%
- Decrease of MBC value when EDTA and neomycin combined vs individually administered (Staphylococcus aureus [9]): about 50% and 50%
- MBC Individually Administered (Staphylococcus aureus [9]; neomycin alone, 50 mM Tris): 3130 µg/mL
- MBC Co-administered (Staphylococcus aureus [9]; [10]): 1560 µg/mL
- MIC Individually Administered, antibiotic (Pseudomonas aeruginosa [1]): 1000 µg/mL
- MIC Individually Administered, antibiotic (Enterococcus faecalis [2]): 3130 µg/mL
- MIC Individually Administered, antibiotic (Staphylococcus aureus [3]): 3130 µg/mL
- Antibiotic resistance profile (Pseudomonas aeruginosa [4]): R
- Antibiotic resistance profile (Enterococcus faecalis [5]): R
- Antibiotic resistance profile (Staphylococcus aureus [6]): R
